Data on 2 compounds can be found in patent US6951751B2, “DNA and amino acid sequences of a tyrosine-inducible tyrosine ammonia lyase enzyme from the yeast Trichosporon cutaneum” (E. I. du Pont de Nemours and Company, priority 2002, dated 2005).

Assay type in all cases: biochemical
Assay [1] concerns the target T1, Rhodotorula rubra (ATCC No. 889) PAL/TAL enzyme (Rhodotorula mucilaginosa, UniProt P10248).
T1 sequence (P10248 1-713): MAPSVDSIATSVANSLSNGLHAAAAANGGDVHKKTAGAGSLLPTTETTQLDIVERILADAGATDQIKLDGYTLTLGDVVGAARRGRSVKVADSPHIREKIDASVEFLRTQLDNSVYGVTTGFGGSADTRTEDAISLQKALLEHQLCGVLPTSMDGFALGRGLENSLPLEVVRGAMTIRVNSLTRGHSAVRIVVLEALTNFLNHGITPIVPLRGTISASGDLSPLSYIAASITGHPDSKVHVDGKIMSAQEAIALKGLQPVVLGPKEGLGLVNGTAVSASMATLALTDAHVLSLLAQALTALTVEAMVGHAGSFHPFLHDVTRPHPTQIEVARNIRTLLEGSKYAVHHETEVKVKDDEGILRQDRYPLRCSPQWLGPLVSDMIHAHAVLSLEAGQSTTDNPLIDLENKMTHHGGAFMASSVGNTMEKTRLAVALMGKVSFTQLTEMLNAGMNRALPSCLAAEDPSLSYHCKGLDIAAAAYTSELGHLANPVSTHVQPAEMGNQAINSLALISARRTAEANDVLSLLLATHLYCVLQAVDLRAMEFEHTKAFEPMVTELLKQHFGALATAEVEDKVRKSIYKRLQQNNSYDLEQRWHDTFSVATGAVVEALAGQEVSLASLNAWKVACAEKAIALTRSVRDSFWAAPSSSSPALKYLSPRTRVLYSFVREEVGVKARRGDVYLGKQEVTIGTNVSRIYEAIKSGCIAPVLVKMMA
Kind of assay: PAL/TAL enzyme kinetics in cell-free extract, R. rubra ATCC 889. The settings on record: Vmax/Km for phenylalanine relative to tyrosine. The text has this: (§1) The yeast strains: Rhodotorula rubra (ATCC No. 889), Saccharomycopsis fibuligera (ATCC No. 2080), Rhodosporidium toruloides (ATCC No. 10788), Sporidobolus pararoseus (ATCC No. 11386), Sporidiobolus ruinenii (ATCC No. 20489), Rhodotorula graminis (ATCC No. 20804), Rhodotorula minuta (ATCC No. 32769), Trichosporon cutaneum (ATCC No. 46446), and Trichosporon cutaneum (ATCC No. 58094) were obtained from the American Type Culture Collection (ATCC, Manassas, Va.). These yeast strains were streaked out from glycerol stock onto nutrient agar plates and grown at 30° C. Single colonies were then selected and transferred to 50 mL of Dagley's medium (Sparnins, et al, J. Bact. 138:425-430 (1979)) supplemented with 0.1 g/L of tyrosine, phenylalanine or succinate. Alternatively, a minimal media, consisting of 1.61 g/L of K2HPO4, 5.55 g/L of KH2PO4, 0.1 g/L MgSO4, 0.01 g/L of biotin, with a pH of 6.2 and supplemented with 0.5 g/L of tyrosine, was used. […]
(§2) Protein concentrations were determined using the Bradford method (Anal. Biochem. 72:248-254 (1976)). The Coomassie solution was mixed with varying amounts of the cell free extracts and the OD at 595 nm was measured.
(§3) For PAL activity, cinnamate formation was monitored at 290 nm using a molar extinction coefficient of 9000 cm-1. […] For TAL activity, PHCA formation was monitored at 315 nm (extinction coefficient of 10,000 cm-1). […]

In assay [2] the test system is Saccharomycopsis fibuligera (ATCC No. 2080) PAL/TAL enzyme. Briefly: PAL/TAL enzyme kinetics in cell-free extract, S. fibuligera ATCC 2080.
Text: (§4) The yeast strains: Rhodotorula rubra (ATCC No. 889), Saccharomycopsis fibuligera (ATCC No. 2080), Rhodosporidium toruloides (ATCC No. 10788), Sporidobolus pararoseus (ATCC No. 11386), Sporidiobolus ruinenii (ATCC No. 20489), Rhodotorula graminis (ATCC No. 20804), Rhodotorula minuta (ATCC No. 32769), Trichosporon cutaneum (ATCC No. 46446), and Trichosporon cutaneum (ATCC No. 58094) were obtained from the American Type Culture Collection (ATCC, Manassas, Va.). These yeast strains were streaked out from glycerol stock onto nutrient agar plates and grown at 30° C. Single colonies were then selected and transferred to 50 mL of Dagley's medium (Sparnins, et al, J. Bact. 138:425-430 (1979)) supplemented with 0.1 g/L of tyrosine, phenylalanine or succinate. Alternatively, a minimal media, consisting of 1.61 g/L of K2HPO4, 5.55 g/L of KH2PO4, 0.1 g/L MgSO4, 0.01 g/L of biotin, with a pH of 6.2 and supplemented with 0.5 g/L of tyrosine, was used. The cells were grown up at 30° C. on a shaker at ˜250 rpm to an OD between 1.0 and 2.0 at 600 nm. The cells were then pelleted by centrifugation and resuspended in 1.0 mL of 50 mM Tris-HCl buffer, pH 8.5.
(§5) The cells were washed and then resuspended in 50 mM Tris-HCl buffer, pH 8.5, containing 1.0 μg/mL of both leupeptin and pepstatin A, 0.5 mM of PMSF (phenylmethylsulfonyl fluoride) and a small amount of DNase. The cells were then passed twice through a French Pressure Cell at 18,000 psi and the debris was removed by centrifugation at 38,720×g for 20 min at 4° C. The supernatant was then used as the crude cell free extract for enzyme assays.
as §2
(§6) For PAL activity, cinnamate formation was monitored at 290 nm using a molar extinction coefficient of 9000 cm-1. One unit of activity deaminates 1.0 μmol of phenylalanine to cinnamate in one min. For TAL activity, PHCA formation was monitored at 315 nm (extinction coefficient of 10,000 cm-1). One unit of activity deaminates 1.0 μmol of tyrosine to PHCA in one min.

For assay [3], the target named is T2, R. glutinis (Rhodosporidium toruloides, ATCC No. 10788) PAL/TAL enzyme (Rhodotorula toruloides, UniProt P11544).
T2 sequence (P11544 1-716): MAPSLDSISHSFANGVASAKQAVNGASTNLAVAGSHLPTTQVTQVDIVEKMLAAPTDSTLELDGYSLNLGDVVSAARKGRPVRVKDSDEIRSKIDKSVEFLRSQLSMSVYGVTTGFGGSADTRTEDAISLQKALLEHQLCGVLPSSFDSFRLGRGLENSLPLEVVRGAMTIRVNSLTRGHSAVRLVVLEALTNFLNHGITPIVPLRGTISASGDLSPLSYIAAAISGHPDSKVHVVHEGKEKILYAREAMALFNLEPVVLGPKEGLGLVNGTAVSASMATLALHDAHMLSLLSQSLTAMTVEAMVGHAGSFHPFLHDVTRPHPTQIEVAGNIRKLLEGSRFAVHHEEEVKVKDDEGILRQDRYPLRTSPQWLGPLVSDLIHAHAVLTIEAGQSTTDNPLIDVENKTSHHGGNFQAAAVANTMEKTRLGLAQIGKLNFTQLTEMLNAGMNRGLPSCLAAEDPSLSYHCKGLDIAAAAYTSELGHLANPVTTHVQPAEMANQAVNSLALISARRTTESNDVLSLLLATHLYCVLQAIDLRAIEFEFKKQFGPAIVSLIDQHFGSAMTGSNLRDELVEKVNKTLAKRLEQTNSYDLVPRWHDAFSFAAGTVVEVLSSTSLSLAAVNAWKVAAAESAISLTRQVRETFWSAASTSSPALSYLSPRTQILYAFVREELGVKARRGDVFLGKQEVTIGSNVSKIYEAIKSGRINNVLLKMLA
Kind of assay: PAL/TAL enzyme kinetics in cell-free extract, R. glutinis (R. toruloides) ATCC 10788. The settings on record: Vmax/Km for phenylalanine relative to tyrosine.
Text: as §1, §2, §3

Assay [4] has as its system Sporidobolus pararoseus (ATCC No. 11386) PAL/TAL enzyme. Briefly: PAL/TAL enzyme kinetics in cell-free extract, S. pararoseus ATCC 11386.
Text: as §4, §5, §2, §6

Assay [5] concerns Sporidiobolus ruinenii (ATCC No. 20489) PAL/TAL enzyme. Kind of assay: PAL/TAL enzyme kinetics in cell-free extract, S. ruinenii ATCC 20489.
Text: as §4, §5, §2, §6

Assay [6] relates to Rhodotorula graminis (ATCC No. 20804) PAL/TAL enzyme. Kind of assay: PAL/TAL enzyme kinetics in cell-free extract, R. graminis ATCC 20804.
Text: as §4, §5, §2, §6

The subject of assay [7] is Rhodotorula minuta (ATCC No. 32769) PAL/TAL enzyme. Kind of assay: PAL/TAL enzyme kinetics in cell-free extract, R. minuta ATCC 32769.
Text: as §4, §5, §2, §6

Assay [8] has as its system Trichosporon cutaneum (ATCC No. 46446) PAL/TAL enzyme. Kind of assay: PAL/TAL enzyme kinetics in cell-free extract, T. cutaneum ATCC 46446.
Text: as §4, §5, §2, §6

Assay [9] deals with Trichosporon cutaneum (ATCC No. 58094) tyrosine ammonia lyase (TAL), wild type, SEQ ID NO:25. Kind of assay: PAL/TAL enzyme kinetics in cell-free extract, T. cutaneum ATCC 58094.
Text: as §4, §5, §2, §6

Where [10] appears, read: Vmax/Km for phenylalanine relative to tyrosine.
Setting [11] is: apparent, phenylalanine as substrate, cell-free extract, pH 8.5.
Setting [12] is: apparent, phenylalanine as substrate, cell-free extract, pH 8.5, read-out: Km (PAL).
Setting [13] is: apparent, tyrosine as substrate, cell-free extract, pH 8.5.
Setting [14] is: apparent, tyrosine as substrate, cell-free extract, pH 8.5, read-out: Km (TAL).

Molecules are shown by their SMILES. Where two headings read alike, the source gives them in different places.

For `N[C@@H](Cc1ccccc1)C(=O)O` [L-phenylalanine], the “Ratio PAL/TAL” value in assay [1] was 2.52; in assay [2] (setting [10]), 1.74; in [3], 2.20; in assay [4] (setting [10]), 3.55; in [5] (setting [10]), 4.09; in assay [6] (setting [10]), 1.87. Further, the “Ratio PAL/TAL” value is listed as 2.79 in [7] (setting [10]), 2.64 in assay [8] (setting [10]) and 0.80 in assay [9] (setting [10]). The “Vmax (PAL)” value is listed as 0.011 U/mg in [2] (setting [11]); 0.179 U/mg in [4] (setting [11]); 0.024 U/mg in [5] (setting [11]); 0.239 U/mg in [6] (setting [11]); 0.083 U/mg in assay [7] (setting [11]); 0.128 U/mg in assay [8] (setting [11]). Moreover, the “Vmax (PAL)” value in [9] (setting [11]) turned out to be 0.777 U/mg. The Km in assay [2] (setting [12]) is 467 µM; in assay [4] (setting [12]) it was 507 µM; in assay [5] (setting [12]) it was 389 µM; in [6] (setting [12]), 448 µM; in [7] (setting [12]), 584 µM; in assay [8] (setting [12]), 49600 µM. For the same compound, the Michaelis constant (Km) in assay [9] (setting [12]) is 2330 µM.

With `N[C@@H](Cc1ccc(O)cc1)C(=O)O` [L-tyrosine], the “Vmax (TAL)” value in [2] (setting [13]) was 0.002 U/mg; in assay [4] (setting [13]), 0.033 U/mg; in assay [5] (setting [13]), 0.004 U/mg; in assay [6] (setting [13]) it was 0.044 U/mg; in assay [7] (setting [13]), 0.011 U/mg; in assay [8] (setting [13]), 0.013 U/mg. In addition, the Km was 156 µM in assay [2] (setting [14]); 327 µM in assay [4] (setting [14]); 264 µM in [5] (setting [14]); 154 µM in assay [6] (setting [14]); 212 µM in assay [7] (setting [14]); 13100 µM in assay [8] (setting [14]). In assay [9] (setting [14]), the Km came to 431 µM.
